Earlier results as cited in US12691120B2, “Liquid oral formulations for PDE V inhibitors” (LIQMEDS WORLDWIDE LIMITED, priority 2017, dated 2026).
Structures can show the parent of a compound that is named as a salt. Where two headings read alike, the source gives them in different places.

Legend:
[1] = tablets or oral suspension
[2] = oral administration
[3] = measured using rats
[4] = EMEA CHMP Assessment Report for Vizarsin
[5] = Jordanian Pharmaceutical Manufacturing Co.

solubility in acetone [4]	solubility in chloroform [4]	solubility in dimethylsulfoxide (DMSO) [4]	solubility in ethanol [4]	solubility in methanol [4]	solubility in ethanol [5]	times less soluble in ethanol than in water [5]	absolute bioavailability [1]	water solubility	average time required to reach the maximum blood concentration (Cmax) [2] [h]	bioavailability [3] [%]	Structure (SMILES)
insoluble	insoluble	soluble	insoluble	soluble	~ 1 mg/ml	about 3.5 times	about 41%				CCCc1nn(C)c2c(=O)[nH]c(-c3cc(S(=O)(=O)N4CCN(C)CC4)ccc3OCC)nc12 [Sildenafil citrate]
								about 2 μg/mL	2	20.5	CN1CC(=O)N2[C@H](c3ccc4c(c3)OCO4)c3[nH]c4ccccc4c3C[C@@H]2C1=O [Tadalafil]
